Assay results from patent publication US10927348B2, “Human adipose tissue white and ‘brown-on-white’ progenitors for reconstructive and metabolic therapies” (University of Massachusetts, priority 2014, dated 2021).
“Also recorded” adds a separate entry of the source. Structures can show the parent of a compound that is named as a salt.

Test system: differentiated HACAPS
Test: RT-PCR gene expression in differentiated HACAPS exposed to forskolin or isoproterenol
Format: cell-based, human
Conditions: isoproterenol for 6 hours after adipogenic differentiation, hydrochloride

Compound: CC(C)NCC(O)c1ccc(O)c(O)c1 (stereo not shown) [isoproterenol, Isoproterenol hydrochloride]
- UCP1 mRNA expression: acute increase; also recorded: pronounced increase
